Measurements published in article PMC5486812, “Characterisation of three fungal glucuronoyl esterases on glucuronic acid ester model compounds” (Applied Microbiology and Biotechnology, 2017).

Target: T1, StGE2 (Thermothelomyces thermophilus, UniProt G2QJR6)
T1 construct: gene ge2; produced in a P. pastoris strain from the OPTIBIOCAT consortium; construct not described
T1 sequence (G2QJR6 19-397): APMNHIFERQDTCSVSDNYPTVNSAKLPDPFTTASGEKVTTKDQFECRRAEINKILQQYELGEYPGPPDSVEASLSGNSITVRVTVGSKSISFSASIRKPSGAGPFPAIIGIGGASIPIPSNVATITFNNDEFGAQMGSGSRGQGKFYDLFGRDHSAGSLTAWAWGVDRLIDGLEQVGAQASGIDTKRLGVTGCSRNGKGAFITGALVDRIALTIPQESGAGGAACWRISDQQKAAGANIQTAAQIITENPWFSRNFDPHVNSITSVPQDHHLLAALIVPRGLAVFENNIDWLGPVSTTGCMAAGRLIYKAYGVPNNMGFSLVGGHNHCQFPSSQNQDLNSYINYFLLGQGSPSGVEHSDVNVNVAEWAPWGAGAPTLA
Test: coupled spectrophotometric GlcA release (K-URONIC kit), relative activity
Format: biochemical
Settings: 2 mM substrate, pH 6.0, 35 °C, 30 min; purification of StGE2 not described

O=C(OCc1ccccc1)[C@H]1OC(O)[C@H](O)[C@@H](O)[C@@H]1O (stereo partly shown) [BnGlcA]
coupled spectrophotometric GlcA release (K-URONIC kit), relative activity: enzyme action on BnGlcA produced the highest amount of hydrolysed glucuronic acid
